Reference: patent US7977364B2, “Indazoles, benzisoxazoles and benzisothiazoles and their use as estrogenic agents” (Laboratoire Thermamex, priority 2004, dated 2011)
Each block holds one compound with its values, some of them ahead of it.

Legend:
[1] = target: T1, purified full-length recombinant human ERα (Homo sapiens, UniProt P03372); test: Estrogen receptor α competitive radiometric binding assay ([3H]-E2); conditions: for RBA (%) Mean ± S.E.M, ER α: ratio of IC50s of E2 and competitor, E2 set at 100%
T1 sequence (P03372 1-595): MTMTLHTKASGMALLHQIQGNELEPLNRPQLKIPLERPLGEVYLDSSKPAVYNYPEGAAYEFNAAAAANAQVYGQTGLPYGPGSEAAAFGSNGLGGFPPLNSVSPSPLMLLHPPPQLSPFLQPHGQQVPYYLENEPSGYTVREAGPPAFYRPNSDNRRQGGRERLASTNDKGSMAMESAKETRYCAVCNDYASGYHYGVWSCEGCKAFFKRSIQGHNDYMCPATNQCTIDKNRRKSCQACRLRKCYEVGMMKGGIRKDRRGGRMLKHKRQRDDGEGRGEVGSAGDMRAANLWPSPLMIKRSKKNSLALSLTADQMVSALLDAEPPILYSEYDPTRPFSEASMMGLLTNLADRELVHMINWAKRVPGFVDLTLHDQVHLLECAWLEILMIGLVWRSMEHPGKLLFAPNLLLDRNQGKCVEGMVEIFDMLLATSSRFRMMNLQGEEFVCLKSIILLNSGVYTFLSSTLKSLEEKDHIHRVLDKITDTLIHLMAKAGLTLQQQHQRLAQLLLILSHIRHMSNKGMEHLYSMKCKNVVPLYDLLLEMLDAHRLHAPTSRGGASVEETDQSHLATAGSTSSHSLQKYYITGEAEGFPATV
Procedure: (§1) Relative binding affinities (RBA) were determined by competitive radiometric binding assays, using purified full-length recombinant human ERα and ERβ (PanVera, Madison, Wis.). […] After shaking for a few seconds and centrifugation at 1500 g and 4° C. for 10 minutes, 150 μl/well of Optiphase ‘Super Mix’ scintillation liquid was mixed with 50 μl of supernatant of each sample and the radioactivity was measured in a MicroBeta counter (Wallac, Turku, Finland). Data were evaluated by a sigmoidal dose-response curve (Prism, GraphPad Software Inc.) to estimate the concentration of competitor at half-maximal specific binding (IC50). […] The selectivity for ERα and ERβ was obtained from the ratio R of the IC50 for ERα to the IC50 for ERβ for each test compound.

[2] = target: purified full-length recombinant human ERβ (Homo sapiens, UniProt Q92731); test: Estrogen receptor β competitive radiometric binding assay ([3H]-E2); conditions: for RBA (%) Mean ± S.E.M, ER β: ratio of IC50s of E2 and competitor, E2 set at 100%; for R (IC50s) αβ: ratio of the IC50 for ERα to the IC50 for ERβ
Sequence of purified full-length recombinant human ERβ (Q92731 whole entry): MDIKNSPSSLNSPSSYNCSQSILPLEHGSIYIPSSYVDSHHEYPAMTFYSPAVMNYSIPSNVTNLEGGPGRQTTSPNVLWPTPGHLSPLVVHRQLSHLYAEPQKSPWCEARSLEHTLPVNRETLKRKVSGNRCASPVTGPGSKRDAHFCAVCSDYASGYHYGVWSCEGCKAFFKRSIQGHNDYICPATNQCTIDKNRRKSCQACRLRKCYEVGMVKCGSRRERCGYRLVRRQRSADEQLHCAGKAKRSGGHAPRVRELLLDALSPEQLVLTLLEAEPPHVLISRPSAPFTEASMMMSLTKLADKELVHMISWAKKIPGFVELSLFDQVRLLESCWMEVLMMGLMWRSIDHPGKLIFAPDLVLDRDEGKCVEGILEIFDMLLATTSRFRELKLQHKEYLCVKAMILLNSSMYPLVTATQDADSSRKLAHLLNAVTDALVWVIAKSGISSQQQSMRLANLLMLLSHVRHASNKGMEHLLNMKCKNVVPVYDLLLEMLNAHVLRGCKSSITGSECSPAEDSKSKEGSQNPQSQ
Procedure: as §1

Prepubescent female rats = test: Estrogenic / uterotrophic activity in vivo (uterus wet weight); design: species or system rat; conditions: Rattus norvegicus, po, 72 h, Table 4; orally 3 mg/rat/day for 3 days; read-out: % stimulation vs vehicle (uterus weight)
Procedure: Prepubescent female rats were orally treated at 3 mg/rat/day for 3 days. On the day following the last treatment, uteri were removed and wet weights were recorded.
The results are expressed as % of stimulation of uterus weight in comparison with vehicles. […]
Prepubescent female rats were orally treated with 0.3; 1; 3 or 10 mg/rat/day for 3 days. On the day following the last treatment, uteri were removed and wet weights were recorded.

[3] = system: human endometrial adenocarcinoma Ishikawa cells; test: Estrogenic and anti-estrogenic activities in vitro: induction of alkaline phosphatase (APase) activity; type: cell-based
Procedure: The estrogenic and anti-estrogenic potentials of new compounds were evaluated using the induction of alkaline phosphatase (APase) activity, an estrogen specific response in human endometrial adenocarcinoma Ishikawa cells (Botella J., J Steroid Biochem Molec Biol, 1995, 55: 77-84; Littlefield et al., Endocrinology, 1990, 127: 2757-2762).
Ishikawa cells were routinely grown as monolayers in Dulbecco's Modified Eagle's medium (DMEM) containing 4 mM Glutamax I and supplemented with 10% of decomplemented fetal calf serum (dFCS) and antibiotics. They were maintained in a humidified atmosphere of 5% CO2 and 95% air, at 37±0.1° C. Stocks were performed once a week to maintain continuous exponential growth.
For studies, Ishikawa cells were plated into 96-well microplates. The next day, the medium was changed to a phenol red-free DMEM containing 5% dFCS stripped of endogenous estrogens by dextran coated charcoal treatment.
At the end of the incubation period, APase activity was assayed by a method involving the hydrolysis of p-nitrophenyl phosphate to p-nitrophenol at pH 9.8 and spectrophotometric determination of the product at 405 nm.
In brief, the microplates were first rinsed twice with cold phosphate buffered solution and then placed at −80° C. for at least 15 minutes. After thawing at room temperature for 5-10 minutes, the plates were put on ice and 50 μl ice-cold solution containing 5 mM p-nitrophenyl phosphate was added to each well. The plates were warmed to room temperature to allow for the development of the enzymatic reaction (t0). After a 15 to 60 minute incubation period, the intensity of the yellow color generated by the production of p-nitrophenol was measured into each well at 405 nm using a microplate reader (Wallac, model 1420 Victor^2). […] Sigmoidal dose-response curves were plotted and EC50 (estrogenic effect) and IC50 (anti-estrogenic effect) values were calculated for each compound.

[4] = system: human breast cancer cell line MCF-7; test: Proliferative activity in vitro (ATP luminescence, 6 days); type: cell-based; conditions: Homo sapiens, MCF7, 144 h; for activity at 1 µM: MCF-7, 10^−6 M, read-out: Effect at 10^−6 M (% of control); for activity at 1 µM / activity at 0.01 µM: six days; for activity at 0.01 µM: MCF-7, 10^−8 M, read-out: Effect at 10^−8 M (% of control); for EC50: MCF-7, six days, read-out: Cell proliferation EC50 (nM) ± S.E.M
Procedure: The proliferative effect of the compounds of the invention was evaluated on human breast cancer cell line MCF-7 by measuring the number of viable cells after 6 days of treatment.
MCF-7 cells were routinely cultured as monolayers in Dulbecco's modified Eagle's medium (DMEM) containing 4 mM Glutamax and 4.5 g/l glucose and supplemented with 5% (v/v) decomplemented fetal calf serum (dFCS) and antibiotics.
Cells were plated at 2.10^6 cells/75 cm^2 flasks and incubated at 37° C. in a humidified atmosphere containing 5% CO2. They were passaged once weekly to maintain continuous exponential growth. Forty eight hours before the start of an experiment, near-confluent cells were changed to a phenol red free DMEM containing 5% steroid-stripped dFCS by dextran coated charcoal treatment (DCC-DMEM). On the day of the experiment, cells were harvested by brief exposure to trypsin and plated in DCC-DMEM in 96-well microplates at a density of 4.10^3 cells/well. The next day, the medium was renewed and test compounds, diluted appropriately in estrogen-free DMEM, were added and incubated for six days. […] At the end of the incubation period, cell proliferation was evaluated by quantitation of the cellular ATP content which signals the presence of metabolically active cells.
The assay, based on the ATP-dependent luciferase reaction, enables generation of a luminescent signal proportional to the amount of ATP present. As there is a linear relationship between the amount of ATP and the number of viable cells present in culture, the luminescent signal allowed to precisely evaluate cell proliferation (Crouch, S. P. M. et al. J. Immunol. Meth., 1993, 160, 81; Kangas, L. et al. Med. Biol. 1984, 62, 338; Petty, R. D. et al. J. Biolum. Chemilum. 1995, 10, 29).
In brief, the microplates were inverted to discard the culture medium and 100 μl of fresh medium was added into each well. The microplates were equilibrated at room temperature for approximately 30 minutes. 100 μl of luciferase reagent was added into each well and contents were mixed for 2 minutes to induce cell lysis. The plates were incubated at room temperature for 10 minutes to stabilize luminescence signal.
Luminescence was recorded using a microplate reader (Wallac, model 1420 Victor^2) and results were expressed as percentage of the control luminescence. Sigmoidal dose-response curves were plotted and EC50 values were calculated for each compound in order to evaluate their proliferative potency.

melting point: 95 °C
SMILES: Cl.Oc1ccc2c(C3CCCCCC3)n[nH]c2c1

melting point: 80 °C
SMILES: c1ccc(COc2ccc3c(C4CCCCCC4)noc3c2)cc1 [Example 63, 6-benzyloxy-3-cycloheptyl-1,2-benzisoxazole]

melting point: 178 °C
SMILES: Oc1ccc(-n2nc(C3CCCC3)c3ccc(O)cc32)cc1 [Example 26, 3-cyclopentyl-1-(4-hydroxyphenyl)-1H-indazol-6-ol]

melting point: 87 °C
SMILES: NS(=O)(=O)Oc1ccc2c(C34CC5CC(CC(C5)C3)C4)noc2c1 [Example 74, 3-(1-adamantyl)-1,2-benzisoxazol-6-yl sulfamate]

melting point: 215 °C
SMILES: Oc1ccc2c(C34CC5CC(CC(C5)C3)C4)noc2c1 [Example 64, 3-(1-adamantyl)-1,2-benzisoxazol-6-ol]

melting point: 130 °C
SMILES: Oc1ccc2c(C3CCCC3)nsc2c1 [Example 94, 3-cyclopentyl-1,2-benzisothiazol-6-ol]

melting point: 205 °C
SMILES: Cn1nc(C2CCCCC2)c2ccc(O)cc21 [Example 25, 3-cyclohexyl-1-methyl-1H-indazol-6-ol]

IC50 [1]: 2910 ± 318 nM
RBA (%) Mean ± S.E.M, ER α [1]: 0.1 ± 0.0%
IC50 [2]: 485 ± 158 nM
selectivity for the human recombinant estrogen receptor β ([2]; in words): marked selectivity
RBA (%) Mean ± S.E.M, ER β [2]: 1.0 ± 0.3%
R (IC50s) αβ [2]: 6.0
EC50 [4]: 365 ± 126 nM
SMILES: Oc1ccc(Cc2noc3cc(O)ccc23)cc1 [Ex 73, 3-(4-hydroxybenzyl)-1,2-benzisoxazol-6-ol]
change in vivo at 3 mg (Prepubescent female rats): 52%
estrogenic effect in alkaline phosphatase activity in the Ishikawa cell model ([3]; in words): weak estrogenic effect
activity at 1 µM [4]: 134%
activity at 0.01 µM [4]: 94.2%

IC50 [1]: 67.5 ± 5 nM
RBA (%) Mean ± S.E.M, ER α [1]: 3.4 ± 0.4%
IC50 [2]: 7.5 ± 0.7 nM
RBA (%) Mean ± S.E.M, ER β [2]: 43.0 ± 7.8%
R (IC50s) αβ [2]: 9.0
EC50 ([3]; Homo sapiens, Ishikawa, 96 h, compound alone, four days, ND = not detected, read-out: Estrogenic activity EC50 (nM) ± S.E.M): 147 ± 39.9 nM
EC50 [4]: 45.2 ± 25.6 nM
SMILES: N#CC(Cc1ccc(O)cc1)c1noc2cc(O)ccc12 (stereo not shown) [Ex 80, 2-(6-hydroxy-1,2-benzisoxazol-3-yl)-3-(4-hydroxyphenyl) propanenitrile]
change in vivo at 3 mg (Prepubescent female rats): 70%
activity at 1 µM [4]: 147%
activity at 0.01 µM [4]: 110%

melting point: 201 °C
IC50 [1]: 139 ± 33.9 nM
RBA (%) Mean ± S.E.M, ER α [1]: 2.4 ± 0.7%
IC50 [2]: 14.4 ± 5.3 nM
RBA (%) Mean ± S.E.M, ER β [2]: 35.9 ± 14.0%
R (IC50s) αβ [2]: 9.7
EC50 [4]: 635 ± 285 nM
SMILES: N#CC(Cc1ccc(O)c(F)c1)c1noc2cc(O)ccc12 (stereo not shown) [Ex 81, 2-(6-hydroxy-1,2-benzisoxazol-3-yl)-3-(3-fluoro-4-hydroxyphenyl)-propanenitrile]
change in vivo at 3 mg (Prepubescent female rats): 49%
activity at 1 µM [4]: 117%
activity at 0.01 µM [4]: 86.8%

melting point: 131 °C
SMILES: COc1ccc2c(C(C#N)Cc3ccc(O)cc3C)noc2c1 (stereo not shown) [Example 82, 2-(6-methoxy-1,2-benzisoxazol-3-yl)-3-(4-hydroxy-2-methylphenyl)-propanenitrile]

melting point: 154 °C
SMILES: Oc1ccc2c(C3CCCCC3)nn(Cc3ccccc3)c2c1 [Example 29, 1-benzyl-3-cyclohexyl-1H-indazol-6-ol]

melting point: 120 °C
SMILES: Cl.Oc1ccc2c(C3CCCC3)nn(CCN3CCCCC3)c2c1

melting point: 145 °C
SMILES: NS(=O)(=O)Oc1ccc2c(C3CCCCC3)noc2c1 [Example 76, 3-cyclohexyl-1,2-benzisoxazol-6-yl sulfamate]

melting point: 82 °C
SMILES: NS(=O)(=O)Oc1ccc2c(C3CCCCCC3)noc2c1 [Example 75, 3-cycloheptyl-1,2-benzisoxazol-6-yl sulfamate]

melting point: 188 °C
SMILES: Cn1nc(C2CCCCC2)c2ccc(S(N)(=O)=O)cc21 [Example 36, 3-cyclohexyl-1-methyl-1H-indazole-6-sulfonamide]

melting point: 111 °C
SMILES: Cl.Oc1ccc(C2=COc3cc(O)cc4[nH]nc2c34)cc1

melting point: 132 °C
SMILES: NS(=O)(=O)Oc1ccc2c(C3CCCC3)nsc2c1 [Example 96, 3-cyclopentyl-1,2-benzisothiazol-6-yl sulfamate]

SMILES: CCCc1c(-c2ccc(O)cc2)nn(-c2ccc(O)cc2)c1-c1ccc(O)cc1 [PPT, 1,3,5-tris-(4-hydroxyphenyl)-4-propyl-1H-pyrazole, reference compound]
change in vivo at 3 mg (Prepubescent female rats): 96%

melting point: 147 °C
SMILES: Oc1ccc2c(C3CCCC3)nn(Cc3ccc(Br)cc3)c2c1 [Example 28, 1-(4-bromobenzyl)-3-cyclopentyl-1H-indazol-6-ol]

SMILES: CC/C(=C(\c1ccccc1)c1ccc(OCCN(C)C)cc1)c1ccccc1 [TAM, tamoxifen, reference compound]
change in vivo at 3 mg (Prepubescent female rats): 206%

melting point: 155 °C
SMILES: NS(=O)(=O)n1nc(C2CCCCCC2)c2ccc(O)cc21 [Example 39, 3-cycloheptyl-6-hydroxy-1H-indazole-1-sulfonamide]

melting point: 255 °C
SMILES: COc1ccc(C2=COc3cc(O)cc4[nH]nc2c34)cc1.Cl

SMILES: N#CC(Cc1ccc(O)cc1)c1ccc(O)cc1 (stereo not shown) [DPN, 2,3-bis-(4-hydroxyphenyl)propionitrile, reference compound]
change in vivo at 3 mg (Prepubescent female rats): 358%
